In ChEMBL document CHEMBL1140449, “Preliminary studies of new proteasome inhibitors in the tumor targeting approach: synthesis and in vitro cytotoxicity” (J Med Chem, 2005):
Where a SMILES comes first, the peptide text is derived from it. The star is where a group is joined. Cbz = O=C(OCc1ccccc1)*

What was measured:
[1] = Inhibitory concentration for cytotoxic activity against human ocular melanoma IPC227F cells upon incubation for 48 h at 37 °C
[2] = Inhibitory concentration for cytotoxic activity against human ocular melanoma IPC227F cells upon incubation for 48 h at 37 °C; No inhibition

Row | Structure (SMILES) | IC50 [1] [nM] | IC50 [2]
1 | CCN(CC)CCNC(=O)c1ccc(C(=O)N[C@@H](CC(C)C)C(=O)N[C@@H](Cc2ccccc2)C(=O)N[C@H](C=O)CC(C)C)cc1 | 2840 | 
2 | CCN(CC)CCNC(=O)c1ccc(C(=O)N[C@@H](Cc2ccccc2)C(=O)N[C@H](C=O)CC(C)C)cc1 | 20900 | 
3 | CCN(CC)CCNC(=O)c1ccc(C(=O)N[C@@H](CC(C)C)C(=O)N[C@@H](CC(C)C)C(=O)N[C@H](C=O)CC(C)C)cc1 | 640 | 
4 | CC(C)C[C@@H](C=O)NC(=O)[C@H](CC(C)C)NC(=O)[C@H](CC(C)C)NC(=O)OCc1ccccc1 [MG-132] (Cbz-Leu-Leu-Leu-aldehyde) | 77 | 
5 | CCN(CC)CCNC(=O)c1ccc(C(=O)N[C@@H](CC(C)C)C(=O)N[C@H](C=O)CC(C)C)cc1 |  | Not Active
6 | CCN(CC)CCNC(=O)c1ccc(C(=O)N[C@@H](Cc2ccccc2)C(=O)N[C@@H](CC(C)C)C(=O)N[C@H](C=O)CC(C)C)cc1 | 11900 | 
7 | CCN(CC)CCNC(=O)c1ccc(C(=O)N[C@H](C=O)CC(C)C)cc1 |  | Not Active
